Tests used:
[1] = system: MRSA ON184; assay: MIC, micro broth dilution; format: cell-based, Staphylococcus aureus; settings: alone, 24 h
Experimental: (§1) An assay was made using a minimum inhibitory concentration (MIC) and minimum bactericidal concentration (MBC) and minimum fungicidal concentration (MFC) determination. The MIC was determined by the micro broth dilution method in 96-well plates. Serial two-fold dilutions of tetrasodium EDTA (from 2% to 0.015%), ethanol (from 50% to 0.1%) and chlorhexidine HCl (from 100 µg/mL to 0.025 µg/mL) were prepared in MH broth with a final volume of 90 µL per well. A 10 µL containing 1 × 10^5 bacterial cells or 2 × 10^3 fungal cells were added to each well. The inoculated plates were covered with a lid, sealed with Parafilm, and incubated for 24 h at 37° C. with slight rocking on a tilting platform shaker. After incubation, the optical density at 600 nm (OD 600 ) of the cultures in each well was measured using an xMark™ Microplate Absorbance Spectrophotometer (Bio-Rad). […] MBCs and MFCs were determined by transferring 100 µL from each well with no apparent growth onto appropriate agar plates, followed by incubation for 24 h at 37° C.

[2] = system: E. coli SK2; assay: MIC, micro broth dilution; format: cell-based, Escherichia coli; settings: alone, 24 h
Experimental: as §1

[3] = system: MRSA ON184; assay: Checkerboard titration, FMCI; format: cell-based, Staphylococcus aureus
Experimental: as §1
(§2) A fourth composition and solution included tetrasodium EDTA with ethanol or chlorhexidine HCl. This fourth composition and solution were created using checkerboard titration methods using micro broth dilution in 96-well microtiter plates. The concentrations of antimicrobials used were based on previously determined MIC values. Briefly, 200 µL of two-fold dilutions of tetrasodium EDTA and ethanol or chlorhexidine HCl were prepared in MH or MH II broth with standardized cell suspension. […] Microtiter plates were incubated at 37° C. for 24 h, and the results were analyzed. Each test was performed in duplicate and included a growth control without adding any antimicrobials.

[4] = system: C. albicans ON47; assay: Checkerboard titration, FMCI; format: cell-based, Candida albicans
Experimental: as §1, §2

[5] = system: Candida albicans SK4b biofilm; assay: MBEC Assay, 48-h biofilm, 24 h exposure; format: cell-based; settings: C. albicans SK4b
Experimental: (§3) A biofilm cultivation cell composition was provided. This fifth composition was created using an MBEC Assay® biofilm inoculator, consisting of a polystyrene lid with 96 downward-protruding pegs and a corresponding base used to grow biofilms. A standardized inoculum was diluted in an appropriate biofilm growth medium to achieve a viable cell count of 1.5 × 10^6 CFU/mL of bacterial cells or […] CFU/mL of fungal cells. Then, 150 µL of this inoculum was transferred into each appropriate well, and the peg lids were inserted into the microtiter plates. The plates were sealed with Parafilm and were incubated at optimum temperature for 48 h with slight rocking for bacteria and shaking at 200 rpm for fungal strains. After incubation, the peg lid was removed from the base and rinsed twice with sterile phosphate-buffered saline (PBS) for 2 min to remove loosely attached non-sessile cells. Before the antimicrobial challenge, the pegs in column 1 (n = 8) were considered the biofilm growth control; these pegs were removed from the lids, placed into 200 µL of recovery medium, and analyzed for starting biofilm cell numbers as described below. The rinsed pegs were placed into new 96-well plates containing two-fold dilutions of antimicrobials such as tetrasodium EDTA (4 %-0.0125%), ethanol (100%-0.2%), and chlorhexidine HCl (100 µg/mL-0.4 µg/mL) in 200 µL of suitable biofilm growth medium per well and incubated at optimum temperature for 24 h. After the antimicrobial challenge, the pegs were rinsed twice with sterile PBS for 2 min and placed into a new 96-well plate containing 200 µL of recovery medium. The recovery plates were sealed with Parafilm, and biofilm cells were dislodged from the pegs by sonication for 30 min with a Branson 3510 bath sonicator. The biofilm cells in the recovery medium were serially diluted, and a drop dilution assay was performed to enumerate the viable cells. MBEC values were determined as the minimum concentration of antimicrobials that yielded a viable cell count at or lower than the 125 CFU/mL detection limit.

[6] = system: Escherichia coli SK2 biofilm; assay: MBEC Assay, 48-h biofilm, 24 h exposure; format: cell-based; settings: E. coli SK2
Experimental: as §3

[7] = system: Proteus mirabilis ON153 biofilm; assay: MBEC Assay, 48-h biofilm, 24 h exposure; format: cell-based; settings: P. mirabilis ON153
Experimental: as §3

[8] = system: Pseudomonas aeruginosa SK1 biofilm; assay: MBEC Assay, 48-h biofilm, 24 h exposure; format: cell-based; settings: P. aeruginosa SK1
Experimental: as §3

[9] = system: Staphylococcus aureus ON89 biofilm; assay: MBEC Assay, 48-h biofilm, 24 h exposure; format: cell-based; settings: S. aureus ON89
Experimental: as §3

[10] = system: Staphylococcus epidermidis SK9 biofilm; assay: MBEC Assay, 48-h biofilm, 24 h exposure; format: cell-based; settings: S. epidermidis SK9
Experimental: as §3

[11] = system: MRSA ON184 biofilm; assay: MBEC Assay, 48-h biofilm, 24 h exposure; format: cell-based, Staphylococcus aureus
Experimental: A biofilm cultivation cell composition was provided. This fifth composition was created using an MBEC Assay® biofilm inoculator, consisting of a polystyrene lid with 96 downward-protruding pegs and a corresponding base used to grow biofilms. A standardized inoculum was diluted in an appropriate biofilm growth medium to achieve a viable cell count of 1.5 × 10^6 CFU/mL of bacterial cells or […] CFU/mL of fungal cells. Then, 150 µL of this inoculum was transferred into each appropriate well, and the peg lids were inserted into the microtiter plates. The plates were sealed with Parafilm and were incubated at optimum temperature for 48 h with slight rocking for bacteria and shaking at 200 rpm for fungal strains. After incubation, the peg lid was removed from the base and rinsed twice with sterile phosphate-buffered saline (PBS) for 2 min to remove loosely attached non-sessile cells. Before the antimicrobial challenge, the pegs in column 1 (n = 8) were considered the biofilm growth control; these pegs were removed from the lids, placed into 200 µL of recovery medium, and analyzed for starting biofilm cell numbers as described below. […] MBEC values were determined as the minimum concentration of antimicrobials that yielded a viable cell count at or lower than the 125 CFU/mL detection limit.

[12] = system: Staphylococcus aureus ON89 biofilm; assay: FBEC index, checkerboard dilution on biofilms; format: cell-based; settings: S. aureus ON89 biofilm
Experimental: (§4) In step (4), microtiter plates are incubated at 37° C. for 24 h. then (6), after incubation, the bacterial and fungal cells were dislodged from the pegs into the recovery medium described above.
(§5) Three 10-µL aliquots, for a total of 30 µL from each well of recovery medium, were spotted on MH agar plates and incubated for 24 h at 37° C. […] The FBEC determination is a modification of the FICI.

[13] = system: Escherichia coli SK2 biofilm; assay: FBEC index, checkerboard dilution on biofilms; format: cell-based; settings: E. coli SK2 biofilm
Experimental: as §4, §5

[14] = system: Candida albicans SK4b biofilm; assay: FBEC index, checkerboard dilution on biofilms; format: cell-based; settings: C. albicans SK4b biofilm
Experimental: as §4, §5

[15] = system: 48-h old biofilms of test organisms; assay: Rapid biofilm eradication, 2 h exposure; format: cell-based; settings: alone at the MBEC
Experimental: Determining rapid biofilm eradication by tetrasodium EDTA, ethanol, and chlorhexidine HCl alone and in combination was performed. After biofilm formation, control pegs (n = 6) were removed and analyzed to determine the starting biofilm cell numbers via the drop dilution method. The 48-h old biofilms on the pegs were exposed to different concentrations of test antimicrobials, dissolved in an appropriate growth medium, for two h to evaluate their efficacy alone and in combination. Antimicrobial solutions tested against each organism included each agent alone at the MBEC, double combinations at the FBEC, and triple combinations ranging from 5 to 20% ethanol, 2.5-5 µg/mL chlorhexidine HCl and 1- 3% tetrasodium EDTA. Following treatment, pegs were washed twice with sterile PBS, and the biofilm cells were dislodged into recovery medium and enumerated as described above.
The method for rapid biofilm eradication ability of test antimicrobials alone and in combination against 48-h-old biofilms within two h exposure time included (1) choosing different concentrations of test antimicrobials to assess their potency in eradicating preformed biofilms of study organisms within two h. Then (2) the quantitative recovery from biofilms following exposure to the antimicrobial solutions for bacterial strains (FIGS. 6A-6C) and fungal strains (FIG. 7) was evaluated.

[16] = tetrasodium EDTA + chlorhexidine HCl

O=C([O-])CN(CCN(CC(=O)[O-])CC(=O)[O-])CC(=O)[O-].[Na+].[Na+].[Na+].[Na+] [EDTA, tetrasodium EDTA]
MIC [1]: 0.063 % w/v | MIC [2]: 0.5 % w/v | Concentration in combination giving FMCI [3, 16]: 0.125 % w/v | Concentration in combination giving FMCI ([3]; tetrasodium EDTA + ethanol): 0.031 % w/v | Concentration in combination giving FMCI [4, 16]: 0.031 % w/v | Concentration in combination giving FMCI ([4]; tetrasodium EDTA + ethanol): 0.25 % w/v | MBEC [5]: 1 % w/v | MBEC [6]: 2 % w/v | MBEC [7]: 4 % w/v | MBEC [8]: 4 % w/v | MBEC [9]: 4 % w/v | MBEC [10]: 2 % w/v | MBEC [11]: 2 % w/v | FBEC (concentration in combination) [12, 16]: 0.125 % w/v | FBEC (concentration in combination) ([12]; tetrasodium EDTA + ethanol): 0.063 % w/v | FBEC (concentration in combination) [13, 16]: 0.031 % w/v | FBEC (concentration in combination) ([13]; tetrasodium EDTA + ethanol): 0.125 % w/v | FBEC (concentration in combination) [14, 16]: 0.063 % w/v | FBEC (concentration in combination) ([14]; tetrasodium EDTA + ethanol): 0.125 % w/v | Eradication of preformed biofilms [15]: failed to eradicate

Source: patent US20230264009A1, “DISINFECTING CAP KIT FOR LUER ACCESS DEVICES” (SterileCare Inc., priority 2022, published 2023)
